Source: ChEMBL document CHEMBL4673348, “Penipyranicins A-C: Antibacterial Methylpyran Polyketides from a Hydrothermal Spring Sediment Penicillium sp” (2020)
In brackets after ≈: the same amount, converted by molar mass.

System: Pseudomonas aeruginosa
Experiment: Antibacterial activity against Pseudomonas aeruginosa NR-117678.1 assessed as reduction in cell viability after 24 hrs by microdilution method
Format: functional
Details: not given

| SMILES | MIC [µg/mL] |
| --- | --- |
| NCC[C@H](O)C(=O)N[C@@H]1C[C@H](N)[C@@H](O[C@H]2O[C@H](CN)[C@@H](O)[C@H](O)[C@H]2O)[C@H](O)[C@H]1O[C@H]1O[C@H](CO)[C@@H](O)[C@H](N)[C@H]1O [AMIKACIN] | 0.8 (≈ 1.37 µM) |
| COc1cc(O)cc(C2=COC(C(=O)O)=C[C@H]2C)c1 | 18.4 (≈ 70.2 µM) |
| COc1cc(O)c2c3c(c(C)cc(C(=O)O)c13)[C@H](OC)OC2=O | 4.7 (≈ 14.8 µM) |
| O=c1cc(CO)occ1O [KOJIC ACID] | 2.9 (≈ 20.4 µM) |
| COc1cc(O)c(C(=O)O)c(C2=COC(C(=O)O)=C[C@H]2C)c1 | 5.2 (≈ 17 µM) |
| COc1cc(O)c(C(=O)O)c(C2=COC(C(=O)O)=C[C@H]2C)c1C(=O)O | 1.4 (≈ 4 µM) |

System: not listed separately
Experiment: Antibacterial activity against Escherichia fergusonii CU928158.2 assessed as reduction in cell viability after 24 hrs by microdilution method
Format: functional
Details: not given

| SMILES | MIC [µg/mL] |
| --- | --- |
| NCC[C@H](O)C(=O)N[C@@H]1C[C@H](N)[C@@H](O[C@H]2O[C@H](CN)[C@@H](O)[C@H](O)[C@H]2O)[C@H](O)[C@H]1O[C@H]1O[C@H](CO)[C@@H](O)[C@H](N)[C@H]1O [AMIKACIN] | 0.4 (≈ 0.683 µM) |
| COc1cc(O)cc(C2=COC(C(=O)O)=C[C@H]2C)c1 | 13.2 (≈ 50.3 µM) |
| COc1cc(O)c2c3c(c(C)cc(C(=O)O)c13)[C@H](OC)OC2=O | 11.2 (≈ 35.2 µM) |
| O=c1cc(CO)occ1O [KOJIC ACID] | 3.5 (≈ 24.6 µM) |
| COc1cc(O)c(C(=O)O)c(C2=COC(C(=O)O)=C[C@H]2C)c1 | 7.8 (≈ 25.5 µM) |
| COc1cc(O)c(C(=O)O)c(C2=COC(C(=O)O)=C[C@H]2C)c1C(=O)O | 2.7 (≈ 7.71 µM) |

System: Bacillus licheniformis
Experiment: Antibacterial activity against Bacillus licheniformis KX785171.1 assessed as reduction in cell viability after 24 hrs by microdilution method
Format: functional
Details: not given

| SMILES | MIC [µg/mL] |
| --- | --- |
| NCC[C@H](O)C(=O)N[C@@H]1C[C@H](N)[C@@H](O[C@H]2O[C@H](CN)[C@@H](O)[C@H](O)[C@H]2O)[C@H](O)[C@H]1O[C@H]1O[C@H](CO)[C@@H](O)[C@H](N)[C@H]1O [AMIKACIN] | 0.3 (≈ 0.512 µM) |
| COc1cc(O)cc(C2=COC(C(=O)O)=C[C@H]2C)c1 | 21.6 (≈ 82.4 µM) |
| COc1cc(O)c2c3c(c(C)cc(C(=O)O)c13)[C@H](OC)OC2=O | 3.8 (≈ 11.9 µM) |
| O=c1cc(CO)occ1O [KOJIC ACID] | 14.8 (≈ 104 µM) |
| COc1cc(O)c(C(=O)O)c(C2=COC(C(=O)O)=C[C@H]2C)c1 | 9.7 (≈ 31.7 µM) |
| COc1cc(O)c(C(=O)O)c(C2=COC(C(=O)O)=C[C@H]2C)c1C(=O)O | 8.4 (≈ 24 µM) |

System: Staphylococcus aureus
Experiment: Antibacterial activity against Staphylococcus aureus CP011526.1 assessed as reduction in cell viability after 24 hrs by microdilution method
Format: functional
Details: not given

| SMILES | MIC [µg/mL] |
| --- | --- |
| NCC[C@H](O)C(=O)N[C@@H]1C[C@H](N)[C@@H](O[C@H]2O[C@H](CN)[C@@H](O)[C@H](O)[C@H]2O)[C@H](O)[C@H]1O[C@H]1O[C@H](CO)[C@@H](O)[C@H](N)[C@H]1O [AMIKACIN] | 0.5 (≈ 0.854 µM) |
| COc1cc(O)cc(C2=COC(C(=O)O)=C[C@H]2C)c1 | > 25 |
| COc1cc(O)c2c3c(c(C)cc(C(=O)O)c13)[C@H](OC)OC2=O | 6.3 (≈ 19.8 µM) |
| O=c1cc(CO)occ1O [KOJIC ACID] | 9.5 (≈ 66.8 µM) |
| COc1cc(O)c(C(=O)O)c(C2=COC(C(=O)O)=C[C@H]2C)c1 | 10.3 (≈ 33.6 µM) |
| COc1cc(O)c(C(=O)O)c(C2=COC(C(=O)O)=C[C@H]2C)c1C(=O)O | 6.8 (≈ 19.4 µM) |

System: Enterobacter hormaechei
Experiment: Antibacterial activity against Enterobacter xiangfangensis CP017183.1 assessed as reduction in cell viability after 24 hrs by microdilution method
Format: functional
Details: subsp. xiangfangensis CP017183.1

| SMILES | MIC [µg/mL] |
| --- | --- |
| NCC[C@H](O)C(=O)N[C@@H]1C[C@H](N)[C@@H](O[C@H]2O[C@H](CN)[C@@H](O)[C@H](O)[C@H]2O)[C@H](O)[C@H]1O[C@H]1O[C@H](CO)[C@@H](O)[C@H](N)[C@H]1O [AMIKACIN] | 0.2 (≈ 0.342 µM) |
| COc1cc(O)cc(C2=COC(C(=O)O)=C[C@H]2C)c1 | 15.8 (≈ 60.2 µM) |
| COc1cc(O)c2c3c(c(C)cc(C(=O)O)c13)[C@H](OC)OC2=O | 7.8 (≈ 24.5 µM) |
| O=c1cc(CO)occ1O [KOJIC ACID] | 1.6 (≈ 11.3 µM) |
| COc1cc(O)c(C(=O)O)c(C2=COC(C(=O)O)=C[C@H]2C)c1 | 3.7 (≈ 12.1 µM) |
| COc1cc(O)c(C(=O)O)c(C2=COC(C(=O)O)=C[C@H]2C)c1C(=O)O | 0.9 (≈ 2.57 µM) |
